Measured values reported in ChEMBL document CHEMBL4196087 (Eur J Med Chem, 2018).
pIC50: −log10 of the molar value.

What was measured:
[1] = system: CCRF-CEM; assay: Growth inhibition of human CCRF-CEM cells at 10^-5 M incubated for 48 hrs by sulforhodamine B assay relative to control; type: functional; details: read-out: GI
[2] = system: HL-60(TB); assay: Growth inhibition of human HL-60(TB) cells at 10^-5 M incubated for 48 hrs by sulforhodamine B assay relative to control; type: functional; details: HL-60, 48 h, read-out: GI
[3] = system: K562; assay: Growth inhibition of human K562 cells at 10^-5 M incubated for 48 hrs by sulforhodamine B assay relative to control; type: functional; details: K562, 48 h, read-out: GI
[4] = system: MOLT-4; assay: Growth inhibition of human MOLT4 cells at 10^-5 M incubated for 48 hrs by sulforhodamine B assay relative to control; type: functional; details: MOLT-4, 48 h, read-out: GI
[5] = system: RPMI-8226; assay: Growth inhibition of human RPMI8226 cells at 10^-5 M incubated for 48 hrs by sulforhodamine B assay relative to control; type: functional; details: RPMI-8226, 48 h, read-out: GI
[6] = system: HOP-62; assay: Growth inhibition of human HOP62 cells at 10^-5 M incubated for 48 hrs by sulforhodamine B assay relative to control; type: functional; details: HOP-62, 48 h, read-out: GI
[7] = system: HOP-92; assay: Growth inhibition of human HOP92 cells at 10^-5 M incubated for 48 hrs by sulforhodamine B assay relative to control; type: functional; details: HOP-92, 48 h, read-out: GI
[8] = system: NCI-H226; assay: Growth inhibition of human NCI-H226 cells at 10^-5 M incubated for 48 hrs by sulforhodamine B assay relative to control; type: functional; details: NCI-H226, 48 h, read-out: GI
[9] = system: SF-539; assay: Growth inhibition of human SF539 cells at 10^-5 M incubated for 48 hrs by sulforhodamine B assay relative to control; type: functional; details: SF-539, 48 h, read-out: GI
[10] = system: SNB-75; assay: Growth inhibition of human SNB75 cells at 10^-5 M incubated for 48 hrs by sulforhodamine B assay relative to control; type: functional; details: SNB-75, 48 h, read-out: GI
[11] = system: LOX IMVI; assay: Growth inhibition of human LOXIMVI cells at 10^-5 M incubated for 48 hrs by sulforhodamine B assay relative to control; type: functional; details: read-out: GI
[12] = system: SK-MEL-5; assay: Growth inhibition of human SK-MEL-5 cells at 10^-5 M incubated for 48 hrs by sulforhodamine B assay relative to control; type: functional; details: SK-MEL-5, 48 h, read-out: GI
[13] = system: IGROV-1; assay: Growth inhibition of human IGROV1 cells at 10^-5 M incubated for 48 hrs by sulforhodamine B assay relative to control; type: functional; details: IGROV-1, 48 h, read-out: GI
[14] = system: A498; assay: Growth inhibition of human A498 cells at 10^-5 M incubated for 48 hrs by sulforhodamine B assay relative to control; type: functional; details: A498, 48 h, read-out: GI
[15] = system: UO-31; assay: Growth inhibition of human UO31 cells at 10^-5 M incubated for 48 hrs by sulforhodamine B assay relative to control; type: functional; details: UO-31, 48 h, read-out: GI
[16] = system: PC-3; assay: Growth inhibition of human PC3 cells at 10^-5 M incubated for 48 hrs by sulforhodamine B assay relative to control; type: functional; details: PC-3, 48 h, read-out: GI
[17] = system: MCF7; assay: Growth inhibition of human MCF7 cells at 10^-5 M incubated for 48 hrs by sulforhodamine B assay relative to control; type: functional; details: MCF7, 48 h, read-out: GI
[18] = system: MDA-MB-231; assay: Growth inhibition of human MDA-MB-231 cells at 10^-5 M incubated for 48 hrs by sulforhodamine B assay relative to control; type: functional; details: MDA-MB-231, 48 h, read-out: GI
[19] = system: T47D; assay: Growth inhibition of human T47D cells at 10^-5 M incubated for 48 hrs by sulforhodamine B assay relative to control; type: functional; details: read-out: GI
[20] = system: MDA-MB-468; assay: Growth inhibition of human MDA-MB-468 cells at 10^-5 M incubated for 48 hrs by sulforhodamine B assay relative to control; type: functional; details: MDA-MB-468, 48 h, read-out: GI
[21] = system: UO-31; assay: Antiproliferative activity against human UO31 cells after 48 hrs by MTT assay; type: functional, cell-based; details: UO-31, 48 h
[22] = system: MDA-MB-468; assay: Antiproliferative activity against human MDA-MB-468 cells after 48 hrs by MTT assay; type: functional, cell-based; details: MDA-MB-468, 48 h
[23] = system: UO-31; assay: Potency index, ratio of doxorubicin IC50 to compound IC50 for antiproliferative activity against human UO31 cells; type: functional
[24] = system: MDA-MB-468; assay: Potency index, ratio of doxorubicin IC50 to compound IC50 for antiproliferative activity against human MDA-MB-468 cells; type: functional
[25] = system: UO-31; assay: Antiproliferative activity against human UO31 cells after 48 hrs by SRB assay; type: functional; details: UO-31, 48 h
[26] = system: MDA-MB-468; assay: Antiproliferative activity against human MDA-MB-468 cells after 48 hrs by SRB assay; type: functional; details: MDA-MB-468, 48 h, read-out: LC50 (the source's name)
[27] = system: Bacillus subtilis; assay: Antibacterial activity against Bacillus subtilis at 37 degC measured after 24 hrs by agar disc diffusion method; type: functional
[28] = system: Staphylococcus aureus; assay: Antibacterial activity against Staphylococcus aureus at 37 degC measured after 24 hrs by agar disc diffusion method; type: functional
[29] = system: Escherichia coli; assay: Antibacterial activity against Escherichia coli at 37 degC measured after 24 hrs by agar disc diffusion method; type: functional
[30] = system: Pseudomonas aeruginosa; assay: Antibacterial activity against Pseudomonas aeruginosa at 37 degC measured after 24 hrs by agar disc diffusion method; type: functional
[31] = system: UO-31; assay: Cell cycle arrest in human UO31 cells assessed as accumulation at G1 phase at 0.75 uM after 24 hrs by propidium iodide staining based flow cytometry (reference value: 69.55%); type: functional
[32] = system: UO-31; assay: Cell cycle arrest in human UO31 cells assessed as accumulation at G2 phase at 0.75 uM after 24 hrs by propidium iodide staining based flow cytometry (reference value: 5.49%); type: functional
[33] = system: UO-31; assay: Cell cycle arrest in human UO31 cells assessed as accumulation at S phase at 0.75 uM after 24 hrs by propidium iodide staining based flow cytometry (reference value: 24.47%); type: functional
[34] = system: UO-31; assay: Cell cycle arrest in human UO31 cells assessed as apoptotic cells at 0.75 uM after 24 hrs by propidium iodide staining based flow cytometry (reference value: 0.49%); type: functional
[35] = system: UO-31; assay: Cell cycle arrest in human UO31 cells assessed as accumulation at pre-G1 phase at 0.75 uM after 24 hrs by propidium iodide staining based flow cytometry relative to control; type: functional
[36] = system: UO-31; assay: Cell cycle arrest in human UO31 cells assessed as accumulation at G2/M phase at 0.75 uM after 24 hrs by propidium iodide staining based flow cytometry relative to control; type: functional
[37] = system: UO-31; assay: Induction of apoptosis in human UO31 cells assessed as live cells at 0.75 uM after 24 hrs by Annexin V-FITC/propidium iodide staining based low cytometry (reference value: 97.84%); type: functional
[38] = system: UO-31; assay: Induction of apoptosis in human UO31 cells assessed as early apoptotic cells at 0.75 uM after 24 hrs by Annexin V-FITC/propidium iodide staining based flow cytometry (reference value: 0.19%); type: functional
[39] = system: UO-31; assay: Induction of apoptosis in human UO31 cells assessed as late apoptotic cells at 0.75 uM after 24 hrs by Annexin V-FITC/propidium iodide staining based flow cytometry (reference value: 0.22%); type: functional
[40] = system: UO-31; assay: Induction of apoptosis in human UO31 cells assessed as necrotic cells at 0.75 uM after 24 hrs by Annexin V-FITC/propidium iodide staining based flow cytometry (reference value: 0.08%); type: functional
[41] = system: UO-31; assay: Induction of apoptosis in human UO31 cells assessed as caspase-3 activation by measuring active caspase-3 level at 0.75 uM by […] (reference value: 66 pg/ml); type: functional
[42] = target: T1, DNA topoisomerase 2-beta (Homo sapiens, UniProt Q02880); assay: Inhibition of human topoisomerase-2B after 2 hrs by ELISA
T1 sequence (Q02880 whole entry): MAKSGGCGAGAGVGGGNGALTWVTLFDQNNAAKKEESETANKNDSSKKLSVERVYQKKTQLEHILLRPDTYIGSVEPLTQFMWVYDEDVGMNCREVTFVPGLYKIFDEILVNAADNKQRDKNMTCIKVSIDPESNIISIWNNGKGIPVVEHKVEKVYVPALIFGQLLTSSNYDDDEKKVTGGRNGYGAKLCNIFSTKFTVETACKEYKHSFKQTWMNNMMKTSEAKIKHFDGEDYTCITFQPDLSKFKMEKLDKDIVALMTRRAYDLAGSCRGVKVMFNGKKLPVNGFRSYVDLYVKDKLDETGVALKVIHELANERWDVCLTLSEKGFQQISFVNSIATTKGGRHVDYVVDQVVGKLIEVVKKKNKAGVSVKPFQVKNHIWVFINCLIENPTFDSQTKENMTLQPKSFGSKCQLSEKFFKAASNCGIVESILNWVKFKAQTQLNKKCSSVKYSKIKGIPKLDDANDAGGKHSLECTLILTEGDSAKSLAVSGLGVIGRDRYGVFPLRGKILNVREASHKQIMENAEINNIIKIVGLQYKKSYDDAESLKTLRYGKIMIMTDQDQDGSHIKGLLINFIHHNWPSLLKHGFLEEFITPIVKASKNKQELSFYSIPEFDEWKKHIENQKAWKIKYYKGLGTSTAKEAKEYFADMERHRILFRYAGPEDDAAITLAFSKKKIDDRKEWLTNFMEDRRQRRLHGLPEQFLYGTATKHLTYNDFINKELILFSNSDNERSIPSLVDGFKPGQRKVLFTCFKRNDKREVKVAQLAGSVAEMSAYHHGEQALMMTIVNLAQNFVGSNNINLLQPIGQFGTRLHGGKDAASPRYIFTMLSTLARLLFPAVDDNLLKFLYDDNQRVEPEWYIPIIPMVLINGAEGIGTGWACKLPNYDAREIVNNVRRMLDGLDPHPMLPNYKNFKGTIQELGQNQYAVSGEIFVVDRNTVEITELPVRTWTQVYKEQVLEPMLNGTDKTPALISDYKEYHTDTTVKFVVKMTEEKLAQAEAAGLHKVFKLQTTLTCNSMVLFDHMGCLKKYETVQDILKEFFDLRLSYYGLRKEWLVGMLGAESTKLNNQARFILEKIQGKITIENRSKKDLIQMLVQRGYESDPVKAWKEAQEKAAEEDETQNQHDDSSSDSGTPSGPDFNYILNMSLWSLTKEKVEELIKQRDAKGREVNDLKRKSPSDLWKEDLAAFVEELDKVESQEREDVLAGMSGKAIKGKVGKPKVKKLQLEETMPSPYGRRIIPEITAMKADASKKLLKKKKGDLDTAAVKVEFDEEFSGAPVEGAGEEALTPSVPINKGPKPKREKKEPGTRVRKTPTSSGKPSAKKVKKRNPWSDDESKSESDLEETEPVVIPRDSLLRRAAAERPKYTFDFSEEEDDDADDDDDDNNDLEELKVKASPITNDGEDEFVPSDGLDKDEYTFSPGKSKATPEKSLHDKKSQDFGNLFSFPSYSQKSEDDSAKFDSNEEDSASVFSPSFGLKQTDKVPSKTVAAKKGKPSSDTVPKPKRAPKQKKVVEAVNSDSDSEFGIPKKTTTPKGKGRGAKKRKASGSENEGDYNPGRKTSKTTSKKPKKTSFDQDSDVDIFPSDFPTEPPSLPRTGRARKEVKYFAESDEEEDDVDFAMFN

[43] = target: T1, DNA topoisomerase 2-beta; assay: Potency index, ratio of doxorubicin IC50 to compound IC50 for inhibition of human topoisomerase-2B
[44] = target: T1, DNA topoisomerase 2-beta; assay: Potency index, ratio of amsacrine IC50 to compound IC50 for inhibition of human topoisomerase-2B
[45] = target: T1, DNA topoisomerase 2-beta; assay: Potency index, ratio of etoposide IC50 to compound IC50 for inhibition of human topoisomerase-2B

O=C(CN1CCN(c2cc3c(cc2F)c(=O)c(C(=O)O)cn3C2CC2)CC1)N/N=C/c1ccccc1C(F)(F)F
inhibition of growth at 10 µM [1]: < 20%
inhibition of growth at 10 µM [2]: < 20%
inhibition of growth at 10 µM [3]: 21.2%
inhibition of growth at 10 µM [4]: 27.3%
inhibition of growth at 10 µM [5]: 25%
inhibition of growth at 10 µM [6]: < 20%
inhibition of growth at 10 µM [7]: 35.9%
inhibition of growth at 10 µM [8]: < 20%
inhibition of growth at 10 µM [9]: 22.5%
inhibition of growth at 10 µM [10]: 29.9%
inhibition of growth at 10 µM [11]: 32.3%
inhibition of growth at 10 µM [12]: 22.1%
inhibition of growth at 10 µM [13]: 33.4%
inhibition of growth at 10 µM [14]: 20.7%
inhibition of growth at 10 µM [15]: 37.4%
inhibition of growth at 10 µM [16]: 24.9%
inhibition of growth at 10 µM [17]: < 20%
inhibition of growth at 10 µM [18]: 23.6%
inhibition of growth at 10 µM [19]: 25.1%
inhibition of growth at 10 µM [20]: 34.7%
pIC50 [21]: 5.31
pIC50 [22]: 5.67
Ratio IC50 [23]: 1.5 - 9
Ratio IC50 [24]: 1.3
LC50 [25]: 15.9 µM
CC50 [26]: 15.6 µM
diameter of the inhibition zone (DIZ) [27]: 28 mm
diameter of the inhibition zone (DIZ) [28]: 25 mm
diameter of the inhibition zone (DIZ) [29]: 26 mm
diameter of the inhibition zone (DIZ) [30]: 25 mm

O=C(CN1CCN(c2cc3c(cc2F)c(=O)c(C(=O)O)cn3C2CC2)CC1)N/N=C/c1ccccc1O
pIC50 [21]: 6.12
Ratio IC50 [23]: 1.5 - 9
LC50 [25]: 15.2 µM
Activity [31]: 59.87%
Activity [32]: 11.28%
Activity [33]: 22.02%
Activity [34]: 6.83%
fold change (FC) [35]: 13.9
fold change (FC) [36]: 2.05
Activity [37]: 91.8%
Activity [38]: 2.64%
Activity [39]: 3.32%
Activity [40]: 0.87%
Activity [41]: 346.4 pg/mL
pIC50 [42]: 6.24
Ratio IC50 [43]: 6
Ratio IC50 [44]: 5
Ratio IC50 [45]: 1.5
diameter of the inhibition zone (DIZ) [27]: 18 mm
diameter of the inhibition zone (DIZ) [28]: 15 mm
diameter of the inhibition zone (DIZ) [29]: 16 mm
diameter of the inhibition zone (DIZ) [30]: 17 mm
